# Test results as given in patent publication US20200190081A1, “META SUBSTITUTED PHENYLPYRAZOLO- AND PHENYLPYRROLO- PYRIDAZINE DERIVATIVES HAVING MULTIMODAL ACTIVITY AGAINST PAIN” (ESTEVE PHARMACEUTICALS, S.A., priority 2016, published 2020).
# Key:
# [1] = molecular target: Human norepinephrine transporter (NET) (Homo sapiens, UniProt P23975); experiment: Binding assay to human norepinephrine transporter (NET), [3H]-Nisoxetin; settings: human NET enriched membranes, 5 nM [3H]-Nisoxetin
# Protocol: Binding Assay to Human Norepinephrine Transporter (NET).
# Human norepinephrine transporter (NET) enriched membranes (5 μg) were incubated with 5 nM of radiolabeled [3H]-Nisoxetin in assay buffer containing 50 mM Tris-HCl, 120 mM NaCl, 5 mM KCl, pH 7.4. NSB (non specific binding) was measured by adding 10 μM of desipramine. The binding of the test compound was measured at five different concentrations. After 60 min incubation at 4° C., binding reaction was terminated by filtering through Multiscreen GF/C (Millipore) presoaked in 0.5% polyethyleneimine in Vacuum Manifold Station, followed by 3 washes with ice-cold filtration buffer containing 50 mM Tris-HCl, 0.9% NaCl, pH 7.4. Filter plates were dried at 60° C. for 1 hour and 30 μl of scintillation cocktail were added to each well before radioactivity reading. Readings were performed in a Trilux 1450 Microbeta radioactive counter (Perkin Elmer).
# [2] = molecular target: Human α2δ-1 Subunit of Cav2.2 Calcium Channel (Homo sapiens, UniProt P54289); experiment: Human α2δ-1 subunit of Cav2.2 calcium channel assay, [3H]-Gabapentin binding; settings: human α2δ-1 enriched membranes, 15 nM [3H]-Gabapentin
# Sequence of Human α2δ-1 Subunit of Cav2.2 Calcium Channel (P54289 25-1103): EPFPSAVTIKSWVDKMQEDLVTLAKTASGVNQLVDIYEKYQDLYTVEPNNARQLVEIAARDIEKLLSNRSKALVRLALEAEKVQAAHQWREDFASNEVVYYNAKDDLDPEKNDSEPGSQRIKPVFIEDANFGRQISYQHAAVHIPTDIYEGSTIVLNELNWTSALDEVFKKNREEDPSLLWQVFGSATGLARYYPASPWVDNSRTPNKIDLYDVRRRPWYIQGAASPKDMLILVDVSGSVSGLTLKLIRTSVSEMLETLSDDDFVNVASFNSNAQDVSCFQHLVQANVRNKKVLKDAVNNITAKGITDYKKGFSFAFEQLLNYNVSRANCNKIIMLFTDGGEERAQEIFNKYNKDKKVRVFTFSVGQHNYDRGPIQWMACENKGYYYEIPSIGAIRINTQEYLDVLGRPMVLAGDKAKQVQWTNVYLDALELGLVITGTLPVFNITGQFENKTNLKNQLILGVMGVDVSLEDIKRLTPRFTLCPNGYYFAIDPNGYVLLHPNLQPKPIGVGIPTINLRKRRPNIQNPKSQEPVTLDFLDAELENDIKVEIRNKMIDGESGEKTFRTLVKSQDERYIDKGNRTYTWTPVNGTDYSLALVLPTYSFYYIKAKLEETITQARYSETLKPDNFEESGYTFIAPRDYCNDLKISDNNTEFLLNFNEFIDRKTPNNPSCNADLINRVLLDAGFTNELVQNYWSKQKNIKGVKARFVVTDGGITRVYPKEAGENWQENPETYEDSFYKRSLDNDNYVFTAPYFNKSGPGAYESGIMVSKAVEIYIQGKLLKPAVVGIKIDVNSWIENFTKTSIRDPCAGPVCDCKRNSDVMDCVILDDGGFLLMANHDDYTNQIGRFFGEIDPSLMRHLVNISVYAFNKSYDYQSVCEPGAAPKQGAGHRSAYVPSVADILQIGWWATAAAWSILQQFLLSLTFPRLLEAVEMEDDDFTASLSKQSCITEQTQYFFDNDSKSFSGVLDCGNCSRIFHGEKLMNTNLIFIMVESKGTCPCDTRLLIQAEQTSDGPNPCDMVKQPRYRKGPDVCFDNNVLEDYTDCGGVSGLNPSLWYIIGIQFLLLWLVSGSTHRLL
# Protocol: Human α2δ-1 Subunit of Cav2.2 Calcium Channel Assay
# Human α2δ-1 enriched membranes (2.5 μg) were incubated with 15 nM of radiolabeled [3H]-Gabapentin in assay buffer containing Hepes-KOH 10 mM, pH 7.4. NSB (non specific binding) was measured by adding 10 μM pregabalin. The binding of the test compound was measured at five different concentrations. After 60 min incubation at 27° C., binding reaction was terminated by filtering through Multiscreen GF/C (Millipore) presoaked in 0.5% polyethyleneimine in Vacuum Manifold Station, followed by 3 washes with ice-cold filtration buffer containing 50 mM Tris-HCl, pH 7.4. Filter plates were dried at 60° C. for 1 hour and 30 μl of scintillation cocktail were added to each well before radioactivity reading. Readings were performed in a Trilux 1450 Microbeta radioactive counter (Perkin Elmer).
# Sequence of Human norepinephrine transporter (NET) (P23975 whole entry): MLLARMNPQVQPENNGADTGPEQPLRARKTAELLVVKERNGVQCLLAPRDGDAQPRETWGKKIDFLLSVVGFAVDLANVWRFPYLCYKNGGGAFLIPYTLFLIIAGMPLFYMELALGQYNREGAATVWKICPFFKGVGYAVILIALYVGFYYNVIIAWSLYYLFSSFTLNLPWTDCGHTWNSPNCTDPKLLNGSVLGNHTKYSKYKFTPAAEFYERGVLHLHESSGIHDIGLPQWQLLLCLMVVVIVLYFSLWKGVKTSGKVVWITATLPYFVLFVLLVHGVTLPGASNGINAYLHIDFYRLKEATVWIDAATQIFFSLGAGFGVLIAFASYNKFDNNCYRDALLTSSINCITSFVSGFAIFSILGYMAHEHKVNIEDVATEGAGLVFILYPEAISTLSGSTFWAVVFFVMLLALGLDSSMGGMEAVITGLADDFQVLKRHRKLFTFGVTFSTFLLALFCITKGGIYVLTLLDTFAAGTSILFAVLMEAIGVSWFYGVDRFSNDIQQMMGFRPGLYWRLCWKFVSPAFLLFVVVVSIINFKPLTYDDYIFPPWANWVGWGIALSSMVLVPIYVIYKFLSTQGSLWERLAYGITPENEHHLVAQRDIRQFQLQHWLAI
Ki [1],Ki [2],Structure (SMILES)
≥ 1000 nM,500 to 5000 nM,"Cc1nnc(N(C)C)c2nn(-c3cccc(OC(CN(C)C)c4cccnc4)c3)c(C)c12 (centres unmarked) [Example 52, 2-(3-(2-(Dimethylamino)-1-(pyridin-3-yl)ethoxy)phenyl)-N,N,3,4-tetramethyl-2H-pyrazolo[3,4-d]pyridazin-7-amine]"
100 to 500 nM,500 to 5000 nM,"CNCCC(Oc1cccc(-n2nc3c(N(C)C)nnc(C)c3c2C)c1)c1ccc(OC(F)(F)F)cc1 (centres unmarked) [Example 46, N,N,3,4-tetramethyl-2-(3-(3-(methylamino)-1-(4-(trifluoromethoxy)phenyl)propoxy)phenyl)-2H-pyrazolo[3,4-d]pyridazin-7-amine]"
100 to 500 nM,500 to 5000 nM,"Cc1nnc(N(C)C)c2nn(-c3cccc(OC(CCN)c4ccccc4F)c3)c(C)c12 (centres unmarked) [Example 19, 2-(3-(3-amino-1-(2-fluorophenyl)propoxy)phenyl)-N,N,3,4-tetramethyl-2H-pyrazolo[3,4-d]pyridazin-7-amine]"
≥ 1000 nM,500 to 5000 nM,"CCNCCC(Oc1cccc(-n2nc3c(N(C)C)nnc(C)c3c2C)c1)c1cccc(F)c1 (centres unmarked) [Example 17, 2-(3-(3-(ethylamino)-1-(3-fluorophenyl)propoxy)phenyl)-N,N,3,4-tetramethyl-2H-pyrazolo[3,4-d]pyridazin-7-amine]"
100 to 500 nM,500 to 5000 nM,"Cc1nnc(N(C)C)c2nn(-c3cccc(OC(CN(C)C)c4ccccc4)c3)c(C)c12 (centres unmarked) [Example 37, 2-(3-(2-(dimethylamino)-1-phenylethoxy)phenyl)-N,N,3,4-tetramethyl-2H-pyrazolo[3,4-d]pyridazin-7-amine]"
< 100 nM,500 to 5000 nM,"CNCC[C@H](Oc1cccc(-n2nc3c(N(C)C)nnc(C)c3c2C)c1)c1ccccc1 [Example 58, (S)-N,N,3,4-Tetramethyl-2-(3-(3-(methylamino)-1-phenylpropoxy)phenyl)-2H-pyrazolo[3,4-d]pyridazin-7-amine]"
100 to 500 nM,500 to 5000 nM,"CNCCC(Oc1cccc(-n2nc3c(NC)nnc(C)c3c2C)c1)c1ccccc1 (centres unmarked) [Example 25, N,3,4-trimethyl-2-(3-(3-(methylamino)-1-phenylpropoxy)phenyl)-2H-pyrazolo[3,4-d]pyridazin-7-amine]"
< 100 nM,500 to 5000 nM,"CNCCC(Oc1cccc(-n2nc3c(N(C)C)nnc(C)c3c2C)c1)c1ccc(F)cc1 (centres unmarked) [Example 8, 2-(3-(1-(4-fluorophenyl)-3-(methylamino)propoxy)phenyl)-N,N,3,4-tetramethyl-2H-pyrazolo[3,4-d]pyridazin-7-amine]"
500 to 1000 nM,500 to 5000 nM,"CNCCC(Oc1cccc(-n2c(C)c3c(C)nnc(C)c3c2C)c1)c1ccccc1F (centres unmarked) [Example 66, 3-(2-fluorophenyl)-N-methyl-3-(3-(1,4,5,7-tetramethyl-6H-pyrrolo[3,4-d]pyridazin-6-yl)phenoxy)propan-1-amine]"
100 to 500 nM,500 to 5000 nM,"CNCCC(Oc1cccc(-n2nc3c(N(C)C)nnc(C)c3c2C)c1)c1cccc(C(N)=O)c1 (centres unmarked) [Example 56, 3-(1-(3-(7-(Dimethylamino)-3,4-dimethyl-2H-pyrazolo[3,4-d]pyridazin-2-yl)phenoxy)-3-(methylamino)propyl)benzamide]"
100 to 500 nM,500 to 5000 nM,"CNc1nnc(C)c2c(C)n(-c3cccc(OC(CCN)c4ccccc4F)c3)nc12 (centres unmarked) [Example 23, 2-(3-(3-amino-1-(2-fluorophenyl)propoxy)phenyl)-N,3,4-trimethyl-2H-pyrazolo[3,4-d]pyridazin-7-amine]"
< 100 nM,< 500 nM,"CNC(COc1cccc(-n2nc3c(N(C)C)nnc(C)c3c2C)c1)Cc1ccccc1 (centres unmarked) [Example 47, N,N,3,4-tetramethyl-2-(3-(2-(methylamino)-3-phenylpropoxy)phenyl)-2H-pyrazolo[3,4-d]pyridazin-7-amine]"
100 to 500 nM,< 500 nM,"CNCC[C@@H](Oc1cccc(-n2c(C)c3c(C)nnc(C)c3c2C)c1)c1cccc(F)c1 [Example 69, (R)-3-(3-fluorophenyl)-N-methyl-3-(3-(1,4,5,7-tetramethyl-6H-pyrrolo[3,4-d]pyridazin-6-yl)phenoxy)propan-1-amine]"
100 to 500 nM,500 to 5000 nM,"CNCCC(Oc1cccc(-n2nc3c(N(C)C)nnc(C)c3c2C)c1)c1cc(F)cc(F)c1 (centres unmarked) [Example 18, 2-(3-(1-(3,5-difluorophenyl)-3-(methylamino)propoxy)phenyl)-N,N,3,4-tetramethyl-2H-pyrazolo[3,4-d]pyridazin-7-amine]"
< 100 nM,500 to 5000 nM,"CNCCC(Oc1cccc(-n2nc3c(N(C)C)nnc(C)c3c2C)c1)c1ccccc1 (centres unmarked) [Example 1, N,N,3,4-Tetramethyl-2-(3-(3-(methylamino)-1-phenylpropoxy)phenyl)-2H-pyrazolo[3,4-d]pyridazin-7-amine]"
< 100 nM,500 to 5000 nM,"CNCCC(Oc1cccc(-n2nc3c(N(C)C)nnc(C)c3c2C)c1)c1cccs1 (centres unmarked) [Example 51, N,N,3,4-Tetramethyl-2-(3-(3-(methylamino)-1-(thiophen-2-yl)propoxy)phenyl)-2H-pyrazolo[3,4-d]pyridazin-7-amine]"
< 100 nM,500 to 5000 nM,"CNCCC(Oc1cccc(-n2nc3c(N(C)CCO)nnc(C)c3c2C)c1)c1ccccc1F (centres unmarked) [Example 31, 2-((2-(3-(1-(2-fluorophenyl)-3-(methylamino)propoxy)phenyl)-3,4-dimethyl-2H-pyrazolo[3,4-d]pyridazin-7-yl)(methyl)amino)ethanol]"
< 100 nM,500 to 5000 nM,"CNCC(Oc1cccc(-n2nc3c(N(C)C)nnc(C)c3c2C)c1)c1ccccc1 (centres unmarked) [Example 35, N,N,3,4-tetramethyl-2-(3-(2-(methylamino)-1-phenylethoxy)phenyl)-2H-pyrazolo[3,4-d]pyridazin-7-amine]"
< 100 nM,500 to 5000 nM,"CNCCC(Oc1cccc(-n2nc3c(NC)nnc(C)c3c2C)c1)c1ccccc1F (centres unmarked) [Example 22, 2-(3-(1-(2-fluorophenyl)-3-(methylamino)propoxy)phenyl)-N,3,4-trimethyl-2H-pyrazolo[3,4-d]pyridazin-7-amine]"
< 100 nM,500 to 5000 nM,"CNC1(CC(Oc2cccc(-n3nc4c(N(C)C)nnc(C)c4c3C)c2)c2ccccc2)CC1 (centres unmarked) [Example 49, N,N,3,4-tetramethyl-2-(3-(2-(1-(methylamino)cyclopropyl)-1-phenylethoxy)phenyl)-2H-pyrazolo[3,4-d]pyridazin-7-amine]"
500 to 1000 nM,500 to 5000 nM,"Cc1nnc(N)c2nn(-c3cccc(OC(CCN)c4ccccc4F)c3)c(C)c12 (centres unmarked) [Example 28, 2-(3-(3-amino-1-(2-fluorophenyl)propoxy)phenyl)-3,4-dimethyl-2H-pyrazolo[3,4-d]pyridazin-7-amine]"
< 100 nM,500 to 5000 nM,"CNCCC(Oc1cccc(-n2nc3c(N(C)C)nnc(C)c3c2C)c1)c1cccc(C#N)c1 (centres unmarked) [Example 11, 3-(1-(3-(7-(dimethylamino)-3,4-dimethyl-2H-pyrazolo[3,4-d]pyridazin-2-yl)phenoxy)-3-(methylamino)propyl)benzonitrile]"
100 to 500 nM,500 to 5000 nM,"CNCCC(Oc1cccc(-n2nc3c(N(C)C)nnc(C)c3c2C)c1)c1ccc(C(N)=O)cc1 (centres unmarked) [Example 57, 4-(1-(3-(7-(dimethylamino)-3,4-dimethyl-2H-pyrazolo[3,4-d]pyridazin-2-yl)phenoxy)-3-(methylamino)propyl)benzamide]"
100 to 500 nM,500 to 5000 nM,"Cc1nnc(N(C)C)c2nn(-c3cccc(OC(CCNCCF)c4ccccc4)c3)c(C)c12 (centres unmarked) [Example 54, 2-(3-(3-((2-fluoroethyl)amino)-1-phenylpropoxy)phenyl)-N,N,3,4-tetramethyl-2H-pyrazolo[3,4-d]pyridazin-7-amine]"
100 to 500 nM,500 to 5000 nM,"CNC[C@H](Oc1cccc(-n2nc3c(N(C)C)nnc(C)c3c2C)c1)c1ccccc1 [Example 60, (R)-N,N,3,4-Tetramethyl-2-(3-(2-(methylamino)-1-phenylethoxy)phenyl)-2H-pyrazolo[3,4-d]pyridazin-7-amine]"
500 to 1000 nM,500 to 5000 nM,"Cc1nnc(N(C)C)c2nn(-c3cccc(OC(CCNCC(F)F)c4ccccc4)c3)c(C)c12 (centres unmarked) [Example 55, 2-(3-(3-((2,2-difluoroethyl)amino)-1-phenylpropoxy)phenyl)-N,N,3,4-tetramethyl-2H-pyrazolo[3,4-d]pyridazin-7-amine]"
< 100 nM,500 to 5000 nM,"CNCCC(Oc1cccc(-n2nc3c(N(C)C)nnc(C)c3c2C)c1)c1cccc(F)c1 (centres unmarked) [Example 5, 2-(3-(1-(3-fluorophenyl)-3-(methylamino)propoxy)phenyl)-N,N,3,4-tetramethyl-2H-pyrazolo[3,4-d]pyridazin-7-amine]"
100 to 500 nM,500 to 5000 nM,"CNCCC(Cc1ccccc1)Oc1cccc(-n2nc3c(N(C)C)nnc(C)c3c2C)c1 (centres unmarked) [Example 38, N,N,3,4-tetramethyl-2-(3-((4-(methylamino)-1-phenylbutan-2-yl)oxy)phenyl)-2H-pyrazolo[3,4-d]pyridazin-7-amine]"
